Laboratory results as given in patent publication US5317009A, “Anti-HIV proteins GAP 31, DAP 30 and DAP 32 and therapeutic uses thereof” (New York University, priority 1991, dated 1994).
Entries after “also recorded” stand apart in the source; their conditions may differ.

Key:
[1] = test system: cells
[2] = test system: CF1 mice; conditions: i.p.
[3] = test system: ribosome (rabbit reticulocyte lysate system); assay: Ribosome-inactivating activity: cell-free translation of globin mRNA in rabbit reticulocyte lysate; assay type: biochemical
Experimental: FIG. 5 is a graph showing the ribosome-inactivating activity of GAP 31, […] and DAP 32, measured as in vitro translation of globin mRNA in a rabbit reticulocyte system. Inhibition of protein synthesis was determined by measuring incorporation of [^3 H]leucine into TCA-insoluble material as a function of drug concentration. Results are from two independent experiments each run in duplicate. Average control values for leucine incorporation without added anti-HIV protein is 65,000 cpm/μl. Results are shown as % of control plotted against concentration of the added anti-HIV protein.
Ribosome-inactivating activity was measured by cell-free protein biosynthesis in a rabbit reticulocyte lysate system. The reaction was carried out in a total volume of 25 μl containing 2 mM magnesium acetate, 80 mM potassium acetate, 2.5 mM spermidine, 34.5 mg/ml creatine phosphate, 26 mg/ml GTP, 250 mM HEPES buffer, 1 μCi of [3H] leucine and 1 μg of globin mRNA. Incubation was conducted at 37° C. for 30 min. The translation products were resolved by TLC in a solvent system of methanol/water/TCA/glacial acetic acid (30/50/10/10, V/V/W/V). The incorporation of [^3 H] labeled leucine into TCA precipitable product was measured by scintillation counting.

[4] = test system: cells; conditions: literature; cited from earlier work
[5] = test system: HIV; conditions: literature; cited from earlier work
[6] = test system: HIV-1; assay: Viral core protein p24 expression in H9 cell cultures (HIV-1 replication); assay type: cell-based, HIV-1 (H9 cells)
Experimental: (§1) FIG. 3 is a graph showing the effects of GAP 31, DAP 30 and DAP 32 on HIV-1 replication, measured by viral core antigen p24 expression and HIV-RT activity. p24 production was determined by RIA and expressed in ng/ml. Viral-RT activity was determined by the incorporation of [^3 H]dTTP into TCA-precipitable products and expressed as cpm×10^3 /ml. These values in control culture (without added plant proteins) were 2219 ng/ml and 846×10^3 cpm/ml, respectively, as determined in triplicates in two independent experiments. Results are normalized to values obtained in control cultures.
(§2) The anti-HIV activities of GAP 31, DAP 30, and DAP 32 were determined by microtiter syncytia formation in infectious cell center assay (Nara, P. L. et al., Nature 332:469-70 (1988)), viral core protein p24 expression (Nara, P. L. et al., AIDS Res. Human Retroviruses 3:283-302 (1987)), and viral-associated RT activity (Hoffman, A. D. et al., Virology 147:326-35 (1985)). […]
(§3) Assays of viral core protein p24 expression and HIV-RT activity were carried out in H9 cell cultures. […] The amount of p24 was measured by RIA and expressed in terms of ng/ml. HIV-RT activity was determined by the incorporation of [^3 H] labeled thymidine with poly(rA).p(dT)12-18 as primer-template and expressed in terms of cpm/ml.

[7] = test system: H9 cells; assay: Cytotoxicity to uninfected H9 cells (cellular DNA and protein synthesis); assay type: cell-based
Experimental: FIG. 4 is a graph showing the cytotoxic activity of GAP 31, DAP 30 and DAP 32, measured as cellular incorporation of [^3 H] thymidine or leucine into TCA-insoluble material in pulse labeling experiments. H9 cells were seeded at 2×10^4 cells/well and cultures pulsed with 1 μCi (1 Ci=37 GBq) of label 8 hr prior to harvesting at day 4. DNA or protein synthesis were measured by scintillation counting of the incorporation of labelled precursors. Results are normalized to values obtained for controls cultures without added anti-HIV proteins. Control values for thymidine uptake was 201,000 cpm and for leucine was 61,000 cpm. Results are the average triplicate values in two independent experiments.
The cytotoxicities of the SCRIPs were measured by their effects on cellular DNA and protein syntheses in uninfected H9 cells. Target cells were grown in the absence and presence of various amounts of SCRIPs. The cultures were pulse labeled with 1 μCi of [^3 H] labeled thymidine or leucine for 8 hours prior to harvesting on day 4. Cellular incorporation of these labeled precursors into trichloroacetic acid (TCA) precipitable products was determined by scintillation counting. Cell viability was determined by trypan blue dye exclusion. Toxicity to intact animals was determined by intraperitoneal injection (i.p.) of the SCRIPs into mice. […]

[8] = test system: HIV-1; assay: Viral-associated reverse transcriptase (HIV-RT) activity in H9 cell cultures; assay type: cell-based, HIV-1 (H9 cells)
Experimental: as §1, §2, §3

[9] = test system: HIV-1; assay: Syncytia formation in infectious cell center assay (HIV-1 infection); assay type: cell-based, HIV-1 (CEM-ss indicator cells)
Source text: FIG. 2 is a graph showing the effects of GAP 31, DAP 30 and DAP 32 on HIV-1 infection by inhibition of syncytia formation in an infectious cell center assay (ICC). Results represent average values of triplicates from two independent experiments. Triplicate wells of indicator cells containing the test compounds at each concentration without virus were also included for the determination of the cytotoxic and cytostatic activities of these anti-HIV proteins. Infectious cell centers (%ICC) are expressed in terms of Vn/Vo where Vn and Vo are average numbers of syncytia in the drug-treated and untreated samples respectively.
as §2
Freshly prepared indicator cells in culture medium at 5×10^4 in 100 μl were treated with 100 μl of SCRIP at various concentrations, for 90 min. […] Focal syncytium formation representing single infectious virion units was scored at day 5 by examination under an inverted microscope. […]

Substance	toxicity (cytotoxicity) in words [1]	In Vivo Toxicity, LD50 (range) [2] [mg/kg]	hepatic hyperplasia ([2]; 0.1-100 mg per 100 gm body weight every three days)	Ribosome-inactivation, ID50 [3] [nM]	cytotoxicity [4]	anti-HIV activity [5]	Inhibition of p24 activity (expression), ID50 [6] [nM]	Cytotoxicity, ID50 [7] [nM]	Inhibition of Reverse Transcriptase (HIV-RT activity), ID50 [8] [nM]	Inhibition of syncytium formation, ID50 [9] [nM]
SAP-6: a SCRIP isolated from Saponaria officinalis	relatively toxic									
trichosanthin	toxic	5 to 7	moderate hepatic hyperplasia	3.7	toxic; also recorded: cytotoxic side effects	reduced viral antigen expression in, and were selectively toxic to, HIV-infected cells	0.37	340	0.46	0.34
